Results published in patent publication US10213451B2, “Methods and compounds for modulating the secretion or expression of adhesion proteins or angiopoietins of cells” (PACIFIC ARROW LIMITED, priority 2004, dated 2019).

What was measured:
Format in all cases: cell-based, human
[1] = tested on: CAM expression in ES2 cells; assay: Microarray gene expression, Table 4
Method: (§1) Y/D is the ratio (in folds) of gene expression in cells treated with compound Y as compared with those of the no drug control (D),
(§2) YM/D is the ratio of gene expression in cells treated with compound YM (ACH-Y, Y without sugar moiety) compared with those of the no drug control (D)
(§3) Cell culture and drug-treatment.: ES2 cells were seeded in a T-25 flask with 4.5 million cells per flask for 24 hours. Cell culture was replaced with fresh medium with xanifolia-Y (Y) or DMSO no drug control (D) for 24 hours. Cells were then harvested for RNA isolation. Three experiments were done.
(§4) RNA extraction, labeling, hybridization, and data analysis. RNA was extracted from tumor cells using the Qiagen RNeasy Kit. RNA quality and quantity was checked by the Agilent BioAnalyzer and the NanoDrop® ND-1000 spectrophotometer respectively before further manipulation. The first and second cDNA strands were synthesized from 20 ng of total RNA using the Affymetrix T7 oligo(dT) primer protocol and kit for the two-cycle amplification. To produce amplified biotin-labeled-cRNA, the cDNA was […] by in vitro transcription using the MegaScript kit from Ambion. 15.0 μg of the labeled cRNA was fragmented and re-checked for concentration using the NanoDrop® ND-1000 spectrophotometer. A hybridization cocktail containing Affymetrix spike-in controls and fragmented labeled cRNA was loaded onto the Human U133 Plus 2.0 GeneChip® oligonucleotide array. The Affymetrix array (Affymetrix, Inc. Santa Clara, Calif.) is comprised of over 1,300,000 unique oligonucleotide features that represent greater than 38,500 well-substantiated human genes. The array was hybridized for 16 hours at 45° C. with rotation at 60 rpm then washed and stained with a strepavidin, R-phycoerythrin conjugate stain on the Affymetrix Fluidicis Station 450. Signal amplification was done using biotinylated antistreptavidin. The arrays were scanned using the GeneChip® 3000 confocal laser scanner with autoloader. The images were analyzed and quality control metrics recorded using Affymetrix GCOS software version 1.4. Lastly, the expression value for each gene was calculated using dChip PM-only model based or Plier algorithm.
(§5) Pairwise comparisons were made as follows: Treated vs. Control (Y vs. D), Modified Drug vs Control (YM/ACY-H vs. D) and Treated vs. Modified Drug (Y vs. YM/ACH-Y) Cel files analyzed using the Bioconductor package of R Statistical programming. Limma analysis generated a reasonable number of changing genes between the samples.
(§6) The raw data in the .CEL files were normalized by the GCRMA method (robust multi-array analysis). It is implemented in Bioconductor (http://www.bioconductor.org/). The raw signal intensity data were normalized, background corrected and summarized based on certain statistical models, and an expression value, in log 2-scale, is obtained per chip per probe set. Then the null hypothesis was tested that there's no significant changes in gene expression between the treatment pairs. This was done by LIMMA and is also implemented in Bioconductor. It uses empirical Bayes method to estimate the variance in gene expression. One comparison was made, namely, High Grade vs. Low Grade. The raw p-values were adjusted by the Benjamnin-Hochberg method for false discovery rate (FDR) control. All data sets contained a significant number of genes with a p-value less than 0.05, which is that the probability that a gene is NOT differential expressed (false positive) is 1:20.

[2] = tested on: CD54 expression in ES2 cells; assay: Microarray gene expression, Table 11; conditions: probe 202638_s_at
Method: as §1, §2, §3
(§7) RNA extraction, labeling, hybridization, and data analysis. RNA was extracted from tumor cells using the Qiagen RNeasy Kit. RNA quality and quantity was checked by the Agilent BioAnalyzer and the NanoDrop® ND-1000 spectrophotometer respectively before further manipulation. […] The images were analyzed and quality control metrics recorded using Affymetrix GCOS software version 1.4. Lastly, the expression value for each gene was calculated using dChip PM-only model based or Plier algorithm.
(§8) Pairwise comparisons were made as follows: Treated vs. Control (Y vs. D), Modified Drug vs Control (YM/ACY-H vs. D) and Treated vs. Modified Drug (Y vs. YM/ACH-Y) Cel files analyzed using the Bioconductor package of R Statistical programming. […]

[3] = tested on: thrombospondin in ES2 cells; assay: Microarray gene expression, Table 15
Method: as §1, §2, §3, §4, §5, §6

[4] = tested on: myosin expression in ES2 cells; assay: Microarray gene expression, Table 7
Method: as §1, §2, §3, §4, §5, §6

[5] = tested on: tenascin-C expression in ES2 cells; assay: Microarray gene expression, Table 9; conditions: probe 201645_at
Method: as §1, §2, §3, §7, §8

[6] = tested on: angiopoietin expression in ES2 cells; assay: Microarray gene expression, Table 12
Method: as §1, §2, §3, §4, §5, §6

[7] = tested on: insulin-like growth factor binding protein expression in ES2 cells; assay: Microarray gene expression, Table 16
Method: as §1, §2, §3, §4, §5, §6

[8] = tested on: fibronectin expression in ES2 cells; assay: Microarray gene expression, Table 1
Method: as §1, §2, §3, §4, §5, §6

[9] = tested on: phosphatase, protein expression in ES2 cells; assay: Microarray gene expression, Table 19
Method: as §1, §2, §3, §4, §5, §6

[10] = tested on: integrin (vitronectin receptor) expression in ES2 cells; assay: Microarray gene expression, Table 2
Method: as §1, §2, §3, §4, §5
(§9) The raw data in the .CEL files were normalized by the GCRMA method (robust multi-array analysis). It is implemented in Bioconductor (http://www.bioconductor.org/). […]

[11] = tested on: heparin sulfate expression in ES2 cells; assay: Microarray gene expression, Table 10
Method: as §1, §2, §3, §4, §5, §6

[12] = tested on: RAB3B, member RAS oncogene family protein expression in ES2 cells; assay: Microarray gene expression, Table 17
Method: as §1, §2, §3, §4, §5, §6

[13] = tested on: Fibronectin secretion from lung carcinoma cells (H460); assay: Fibronectin secretion (Western blot), H460 cells; conditions: for % inhibition of Fibronectin secretion: H460 cells, 20 ug/ml
[14] = tested on: Glypican expression in ES2 cells; assay: Microarray gene expression, Table 13
Method: as §1, §2, §3, §4, §5, §9

C/C=C(/C)C(=O)O[C@H]1[C@H](OC(=O)/C(C)=C\C)[C@@]2(CO)C(CC1(C)C)C1=CCC3[C@@]4(C)CC[C@H](O[C@@H]5OC(C(=O)O)[C@@H](O)C(O[C@@H]6O[C@@H](CO)C(O)C6O)C5O[C@@H]5OC(CO)[C@H](O)C(O)C5O)C(C)(C)C4CC[C@@]3(C)[C@]1(C)[C@@H](O)[C@H]2O (stereo partly drawn) [Xanifolia-Y, 3-O-[β-D-galactopyranosyl (1→2)]-α-L-arabinofuranosy (1→3)-β-D-glucuronopyranosyl-21,22-O-diangeloyl-3β, 15α, 16α, 21β, 22α, 28-hexahydroxyolean-12-ene]
ALCAM activated leukocyte cell adhesion molecule, gene expression ratio to no drug control (D) ([1]; probe 201951_at): −1.9 folds | ALCAM activated leukocyte cell adhesion molecule, gene expression ratio to no drug control (D) ([1]; probe 201952_at): −1.9 folds | SCAMP1 secretory carrier membrane protein 1, gene expression ratio to no drug control (D) ([1]; probe 206667_s_at): −1.3 folds | SCAMP1 secretory carrier membrane protein 1, gene expression ratio to no drug control (D) ([1]; probe 212416_at): −1.3 folds | SCAMP1 secretory carrier membrane protein 1, gene expression ratio to no drug control (D) ([1]; probe 212417_at): −1.4 folds | SCAMP1 secretory carrier membrane protein 1, gene expression ratio to no drug control (D) ([1]; probe 212425_at): −1.7 folds | TICAM2 toll-like receptor adaptor molecule 2, gene expression ratio to no drug control (D) ([1]; probe 228234_at): −1.3 folds | TICAM2 toll-like receptor adaptor molecule 2, gene expression ratio to no drug control (D) ([1]; probe 239431_at): −1.3 folds | ALCAM activated leukocyte cell adhesion molecule, gene expression ratio to no drug control (D) ([1]; probe 240655_at): −1.6 folds | inhibiting ratio to the control, genes related to the adhesion molecule ([1]; span over different probes of Table 4): −1.3 to −1.9 folds | ICAM1 intercellular adhesion molecule 1 (CD54), gene expression ratio to no drug control (D) [2]: 1.6 folds | THBS1 thrombospondin 1, gene expression ratio to no drug control (D) ([3]; probe 201108_s_at): −1.7 folds | THBS1 thrombospondin 1, gene expression ratio to no drug control (D) ([3]; probe 201109_s_at): −2.0 folds | THBS1 thrombospondin 1, gene expression ratio to no drug control (D) ([3]; probe 201110_s_at): −1.8 folds | MYLK myosin, light polypeptide kinase, gene expression ratio to no drug control (D) ([4]; probe 202555_s_at): −1.6 folds | MYO6 myosin VI, gene expression ratio to no drug control (D) ([4]; probe 203215_s_at): −1.6 folds | MYO5A myosin VA, gene expression ratio to no drug control (D) ([4]; probe 204527_at): −1.6 folds | MYH9 myosin, heavy polypeptide 9, non-muscle, gene expression ratio to no drug control (D) ([4]; probe 211926_s_at): −2.2 folds | MYO1D myosin ID, gene expression ratio to no drug control (D) ([4]; probe 212338_at): −1.7 folds | MYH10 myosin, heavy polypeptide 10, non-muscle, gene expression ratio to no drug control (D) ([4]; probe 212372_at): −1.7 folds | MYLK myosin, light polypeptide kinase, gene expression ratio to no drug control (D) ([4]; probe 224823_at): −1.5 folds | MYO1C Myosin IC, gene expression ratio to no drug control (D) ([4]; probe 225080_at): −1.5 folds | expression ratio to the control, myosin family ([4]; span over probes of Table 7): −1.5 to −2.2 folds | TNC Tenascin C (hexabrachion), gene expression ratio to no drug control (D) [5]: −3.2 folds | ANGPT2 angiopoietin 2, gene expression ratio to no drug control (D) ([6]; probe 205572_at): 3.5 folds | ANGPT1 angiopoietin 1, gene expression ratio to no drug control (D) ([6]; probe 205609_at): −1.1 folds | ANGPT2 angiopoietin 2, gene expression ratio to no drug control (D) ([6]; probe 211148_s_at): 2.5 folds | ANGPTL4 angiopoietin-like 4, gene expression ratio to no drug control (D) ([6]; probe 221009_s_at): −1.2 folds | ANGPTL1 Angiopoietin-like 1, gene expression ratio to no drug control (D) ([6]; probe 227533_at): −1.5 folds | IGFBP7 insulin-like growth factor binding protein 7, gene expression ratio to no drug control (D) ([7]; probe 201163_s_at): −1.4 folds | IGFBP4 insulin-like growth factor binding protein 4, gene expression ratio to no drug control (D) ([7]; probe 201508_at): −1.7 folds | IGFBP6 insulin-like growth factor binding protein 6, gene expression ratio to no drug control (D) ([7]; probe 203851_at): −1.3 folds | IGFBP1 insulin-like growth factor binding protein 1, gene expression ratio to no drug control (D) ([7]; probe 205302_at): −1.7 folds | IGFBP3 insulin-like growth factor binding protein 3, gene expression ratio to no drug control (D) ([7]; probe 210095_s_at): −4.0 folds | IGFBP3 insulin-like growth factor binding protein 3, gene expression ratio to no drug control (D) ([7]; probe 212143_s_at): −3.7 folds | FN1 fibronectin 1, gene expression ratio to no drug control (D) ([8]; probe 210495_x_at): −2.5 folds | FN1 fibronectin 1, gene expression ratio to no drug control (D) ([8]; probe 211719_x_at): −2.6 folds | FN1 fibronectin 1, gene expression ratio to no drug control (D) ([8]; probe 212464_s_at): −2.7 folds | FN1 fibronectin 1, gene expression ratio to no drug control (D) ([8]; probe 216442_x_at): −2.6 folds | PPP1R15A protein phosphatase 1, regulatory (inhibitor) subunit 15A, gene expression ratio to no drug control (D) ([9]; probe 37028_at): 2.4 folds | PPP1R15A protein phosphatase 1, regulatory (inhibitor) subunit 15A, gene expression ratio to no drug control (D) ([9]; probe 202014_at): 2.6 folds | DUSP10 dual specificity phosphatase 10, gene expression ratio to no drug control (D) ([9]; probe 215501_s_at): 3.2 folds | DUSP10 dual specificity phosphatase 10, gene expression ratio to no drug control (D) ([9]; probe 221563_at): 3.8 folds | ITGAV integrin, alpha V (vitronectin receptor), gene expression ratio to no drug control (D) ([10]; probe 202351_at): −1.8 folds | ITGAV integrin, alpha V (vitronectin receptor), gene expression ratio to no drug control (D) ([10]; probe 236251_at): −1.4 folds | HSPG2 heparan sulfate proteoglycan 2 (perlecan), gene expression ratio to no drug control (D) ([11]; probe 201655_s_at): −2.4 folds | HS2ST1 heparan sulfate 2-O-sulfotransferase 1, gene expression ratio to no drug control (D) ([11]; probe 203284_s_at): −1.3 folds | HPSE Heparanase, gene expression ratio to no drug control (D) ([11]; probe 219403_s_at): −1.4 folds | RAB3B, member RAS oncogene family, gene expression ratio to no drug control (D) ([12]; probe 205924_at): −1.7 folds | RAB3B, member RAS oncogene family, gene expression ratio to no drug control (D) ([12]; probe 205925_s_at): −1.2 folds | RAB3B, member RAS oncogene family, gene expression ratio to no drug control (D) ([12]; probe 227123_at): −1.6 folds | RAB3B, member RAS oncogene family, gene expression ratio to no drug control (D) ([12]; probe 242629_at): −3.5 folds | % inhibition of Fibronectin secretion [13]: 20-60% | % inhibition of Fibronectin secretion ([13]; listed as Y): over 60% | inhibition at 10 µg/mL ([13]; Homo sapiens, NCI-H460, H460 cells, 10 ug/ml): 19% | GPC6 Glypican 6, gene expression ratio to no drug control (D) ([14]; probe 227059_at): −2.2 folds | GPC6 Glypican 6, gene expression ratio to no drug control (D) ([14]; probe 243865_x_at): −2.7 folds
